Assay results taken from patent US20090263488A1, “PRESSURISED METERED DOSE INHALERS CONTAINING SOLUTIONS OF BETA-2 AGONISTS” (Chiesi Farmaceutici S.p.A., priority 2002, published 2009).

Assay: Stability study of TA 2005 HFA solution formulation in cans
Assay type: physicochemical
Conditions: HFA formulation able to deliver 4 μg per actuation; cans stored upright at 5° C.; after nine months
Experimental: A stability study on a formulation able to deliver 4 μg per actuation was initiated storing the cans upright at 5° C.

## COc1ccc(C[C@@H](C)NC[C@H](O)c2ccc(O)c3[nH]c(=O)ccc23)cc1 [TA 2005, 8-hydroxy-5-[(1R)-1-hydroxy-2-[[(1R)-2-(4-methoxyphenyl)-1-methylethyl]amino]ethyl]-2(1H)-quinolinone]
  TA 2005 assay: higher than 95%
